Measured values taken from patent publication US12012415B2, “Compositions and methods for the diagnosis, treatment and prevention of neoplastic and neurological disorders” (AscentGene, Inc., priority 2018, dated 2024).

System: Glioma cells
Test: Cell viability assay in glioma cells versus TMZ and Carmustine
Type: cell-based, human
Conditions: 48 hours treatment
Procedure: Human glioma cell lines of U251, SF539, SF295 were obtained from NCI/DTP and U87 was obtained from ATCC. U251, SF539, and SF295 cells were grown in RPMI (Gibco) medium; U87 cells were grown in EMEM medium (ATCC), all the cells culture media containing 10% FBS and 100 unit/ml of Penicillin-Streptomycin, and cells were incubated in a 37 °C/5% CO2 humidified hood. One day before chemical compounds treatment, four kinds of cells U251, SF539, SF295, and U87 were seeded in 96-well plates at 10,000 cells/well (100 μl) with triplicate. The culture medium was removed and cells were treated with a series different concentration of AG1601/in correspond fresh media. Following an additional incubation of 48 hours at 37° C./5% CO2, cells proliferation assay was performed with Cell Counting Kit-8 (Dojindo Laboratories, #CK04), added 10 μl of reagent to the cells in each well after replacing with 100 μl of fresh media, mix well, following an additional 2 to 3 hours incubation at 37° C./5% CO2, read wavelengths of OD450 nm in a 96-well plate reader (Victor 2, 1420 Multilabel counter), data analysis were performed with Excel and it is platted as relative mean OD450 nm+/−standard error of the mean.
Cells were treated with indicated content of AG-1601 for 48 hours, then followed by performance of cell viability assays. […]

With `C=CC1=C(C)c2cc3[nH]c(cc4nc(cc5[nH]c(cc1n2)c(C)c5C=C)C(C)=C4CCC(=O)O)c(CCC(=O)NCCCc1ccccc1)c3C` [AG-1601, 3-(2,8,13,18-tetramethyl-3-(3-oxo-3-((3-phenylpropyl)amino)propyl)-12,17-divinylporphyrin-7-yl)propanoic acid] the “efficacy on glioma cells compared with TMZ and Carmustine” value was “better efficacy on Glioma cells in vitro than TMZ and Carmustine”.
